From patent publication US20230072683A1, “PYRIDO-PYRIMIDIN DERIVATIVES AND PHARMACEUTICAL COMPOSITION, FOR USE IN PREVENTING OR TREATING PI3 KINASE RELATED DISEASES, COMPRISING SAME AS ACTIVE INGREDIENT” (BORYUNG PHARMACEUTICAL CO., LTD, priority 2019, published 2023)
Where two headings read alike, the source gives them in different places.

Assays:
[1] = biological target: DNA-PK(h) (Homo sapiens, UniProt P78527); assay: Evaluation of inhibitory activity against DNA-PK (HTRF kinase assay, GST-cMyc-p53 substrate); assay type: biochemical; conditions: for inhibition at 0.1 µM: read-out: EXP_VALUE(% Inhibition) DNA-PK(h) 0.1 μM; for inhibition at 0.01 µM: compound concentration 0.01 μM, read-out: EXP_VALUE(% Inhibition) DNA-PK(h) 0.01 μM
Procedure, shortened: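 Human DNA-PK with 50 μM GST-cMyc-p53 substrate; reaction started with Mg/ATP, run 30 min at room temperature, stopped with EDTA. Phospho-Ser15 p53 detected by HTRF (Eu anti-phospho-Ser15, d2 anti-GST), signal = 10000×(Em 665/Em 620).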

[2] = biological target: PI3K-δ (PI3K(p1108/p857) (h)) (Homo sapiens, UniProt O00329); assay: Evaluation of inhibitory activity against PI3K-δ (HTRF kinase assay); assay type: biochemical; conditions: for inhibition at 0.1 µM: read-out: EXP_VALUE(% Inhibition) PI3K-δ 0.1 μM; for inhibition at 0.01 µM: compound concentration 0.01 μM, read-out: EXP_VALUE(% Inhibition) PI3K-δ 0.01 μM
Chain of PI3K-δ (PI3K(p1108/p857) (h)) (O00329 whole entry, the tested form may be a part): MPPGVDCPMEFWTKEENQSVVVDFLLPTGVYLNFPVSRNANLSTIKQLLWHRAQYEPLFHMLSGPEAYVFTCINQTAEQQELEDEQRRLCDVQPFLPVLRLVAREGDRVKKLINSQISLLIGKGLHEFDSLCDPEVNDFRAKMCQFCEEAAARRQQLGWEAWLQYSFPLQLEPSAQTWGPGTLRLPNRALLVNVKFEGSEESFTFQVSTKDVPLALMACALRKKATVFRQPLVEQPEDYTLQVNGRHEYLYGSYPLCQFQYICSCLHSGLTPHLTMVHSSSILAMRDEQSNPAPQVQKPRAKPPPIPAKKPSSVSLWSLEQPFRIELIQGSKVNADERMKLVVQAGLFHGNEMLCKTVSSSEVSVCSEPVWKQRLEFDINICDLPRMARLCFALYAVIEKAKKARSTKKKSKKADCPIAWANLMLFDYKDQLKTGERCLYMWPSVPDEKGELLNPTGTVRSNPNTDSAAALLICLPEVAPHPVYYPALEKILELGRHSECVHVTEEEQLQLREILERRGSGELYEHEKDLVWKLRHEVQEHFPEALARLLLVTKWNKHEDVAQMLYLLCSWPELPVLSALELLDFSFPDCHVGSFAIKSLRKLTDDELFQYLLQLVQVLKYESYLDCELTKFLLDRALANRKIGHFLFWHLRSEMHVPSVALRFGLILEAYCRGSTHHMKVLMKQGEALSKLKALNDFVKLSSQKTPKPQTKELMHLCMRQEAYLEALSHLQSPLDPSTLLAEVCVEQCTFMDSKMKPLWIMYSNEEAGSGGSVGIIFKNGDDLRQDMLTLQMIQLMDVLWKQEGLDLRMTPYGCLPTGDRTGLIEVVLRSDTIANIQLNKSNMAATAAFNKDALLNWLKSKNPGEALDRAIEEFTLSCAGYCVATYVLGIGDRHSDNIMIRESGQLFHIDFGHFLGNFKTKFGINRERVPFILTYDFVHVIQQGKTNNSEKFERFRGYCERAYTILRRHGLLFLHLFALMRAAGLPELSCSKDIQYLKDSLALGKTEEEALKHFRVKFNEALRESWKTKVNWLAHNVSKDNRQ
Chain of PI3K-δ (PI3K(p1108/p857) (h)) (P27986 whole entry partner, the tested form may be a part): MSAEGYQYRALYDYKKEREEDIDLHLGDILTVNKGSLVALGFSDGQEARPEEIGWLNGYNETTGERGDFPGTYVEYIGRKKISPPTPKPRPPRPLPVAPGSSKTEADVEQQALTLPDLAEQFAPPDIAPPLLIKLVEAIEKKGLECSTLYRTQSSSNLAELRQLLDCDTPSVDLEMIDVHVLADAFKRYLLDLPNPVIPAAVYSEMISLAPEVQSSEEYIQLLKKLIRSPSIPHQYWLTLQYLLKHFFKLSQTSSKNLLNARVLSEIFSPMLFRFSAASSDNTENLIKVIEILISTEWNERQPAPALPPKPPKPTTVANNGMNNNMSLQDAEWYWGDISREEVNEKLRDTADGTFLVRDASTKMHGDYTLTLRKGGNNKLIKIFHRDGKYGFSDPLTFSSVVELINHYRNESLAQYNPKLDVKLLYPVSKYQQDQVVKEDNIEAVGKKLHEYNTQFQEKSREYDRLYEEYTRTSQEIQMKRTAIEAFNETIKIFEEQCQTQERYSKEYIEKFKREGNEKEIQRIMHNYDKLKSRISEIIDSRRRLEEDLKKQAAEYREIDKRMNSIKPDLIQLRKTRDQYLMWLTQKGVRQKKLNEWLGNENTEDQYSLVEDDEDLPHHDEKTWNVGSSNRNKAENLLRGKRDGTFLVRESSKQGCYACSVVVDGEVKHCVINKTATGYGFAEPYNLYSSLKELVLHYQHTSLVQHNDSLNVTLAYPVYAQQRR
Procedure, shortened: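 HTRF read-out (665/620 nm ratio ×10000) used Eu-labelled anti-GST, GST-tagged GRP1 PH domain and streptavidin-allophycocyanin after EDTA/PIP3 stop.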

Row | SMILES | inhibition at 0.1 µM ([1]; compound at 0.1 μM) [%] | inhibition at 0.1 µM ([2]; compound at 0.1 μM) [%] | inhibition at 0.01 µM [1] [%] | inhibition at 0.1 µM ([1]; compound concentration 0.1 μM) [%] | inhibition at 0.01 µM [2] [%] | inhibition at 0.1 µM ([2]; compound concentration 0.1 μM) [%]
1 | C[C@H](Nc1ncnc2[nH]ccc(=O)c12)c1c(Cl)c2cccc(Sc3nc[nH]n3)c2c(=O)n1-c1ccccc1 [Example 400, (S)-4-((1-(8-((1H-1,2,4-triazol-3-yl)thio)-4-chloro-1-oxo-2-phenyl-1,2-dihydroisoquinolin-3-yl)ethyl)amino)pyrido[2,3-d]pyrimidin-5(8H)-one] | -2 | 16 |  |  |  | 
2 | C[C@H](Nc1ncnc2[nH]ccc(=O)c12)c1c(Cl)c2cccc(-c3cc(F)cc(Cl)c3)c2c(=O)n1-c1ccccc1 [Example 104, (S)-4-((1-(4-chloro-8-(3-chloro-5-fluorophenyl)-1-oxo-2-phenyl-1,2-dihydroisoquinolin-3-yl)ethyl)amino)pyrido[2,3-d]pyrimidin-5(8H)-one] |  |  | 16 | 66 | 63 | 95
3 | CC(=O)Nc1ccc(-c2cccc3c(Cl)c([C@H](C)Nc4ncnc5[nH]ccc(=O)c45)n(-c4ccccc4)c(=O)c23)cn1 [Example 202, (S)—N-(5-(4-chloro-1-oxo-3-(1-((5-oxo-5,8-dihydropyrido[2,3-d]pyrimidin-4-yl)amino)ethyl)-2-phenyl-1,2-dihydroisoquinolin-8-yl)pyridin-2-yl) acetamide] |  |  | 70 |  | 78 | 
4 | C[C@H](Nc1ncnc2[nH]ccc(=O)c12)c1c(Cl)c2cccc(-c3cnc4[nH]ccc4c3)c2c(=O)n1-c1ccccc1 [Example 25, (S)-4-((1-(4-chloro-1-oxo-2-phenyl-8-(1H-pyrrolo[2,3-b]pyridin-5-yl)-1,2-dihydroisoquinolin-3-yl)ethyl)amino)pyrido[2,3-d]pyrimidin-5(8H)-one] |  |  | 7 |  | 6 | 
5 | COc1cc(OC(F)(F)F)cc(-c2cccc3c(Cl)c([C@H](C)Nc4ncnc5[nH]ccc(=O)c45)n(-c4ccccc4)c(=O)c23)c1 [Example 158, (S)-4-((1-(4-chloro-8-(3-methoxy-5-(trifluoromethoxy)phenyl)-1-oxo-2-phenyl-1,2-dihydroisoquinolin-3-yl)ethyl)amino)pyrido[2,3-d]pyrimidin-5(8H)-one] |  |  | 18 |  | 32 | 
6 | C[C@H](Nc1ncnc2[nH]ccc(=O)c12)c1c(Cl)c2cccc(N)c2c(=O)n1-c1ccccc1 [Example 294, (S)-4-((1-(8-amino-4-chloro-1-oxo-2-phenyl-1,2-dihydroisoquinolin-3-yl)ethyl)amino)pyrido[2,3-d]pyrimidin-5(8H)-one] |  |  | 49 |  | 65 | 
7 | CC(=O)c1cccc2c(Cl)c([C@H](C)Nc3ncnc4[nH]ccc(=O)c34)n(-c3ccccc3)c(=O)c12 [Example 267, (S)-4-((1-(8-acetyl-4-chloro-1-oxo-2-phenyl-1,2-dihydroisoquinolin-3-yl)ethyl)amino)pyrido[2,3-d]pyrimidin-5(8H)-one] |  |  | 63 |  | 92 | 
8 | C[C@H](Nc1ncnc2[nH]ccc(=O)c12)c1c(Cl)c2cccc(C#Cc3cncs3)c2c(=O)n1-c1ccccc1 [Example 313, (S)-4-((1-(4-chloro-1-oxo-2-phenyl-8-(thiazol-5-ylethynyl)-1,2-dihydroisoquinolin-3-yl)ethyl)amino)pyrido[2,3-d]pyrimidin-5(8H)-one] |  |  | 47.2 | 84.6 | 20.2 | 55
9 | COc1ccc(-c2cccc3c(Cl)c([C@H](C)Nc4ncnc5[nH]ccc(=O)c45)n(-c4ccccc4)c(=O)c23)cc1F [Example 191, (S)-4-((1-(4-chloro-8-(3-fluoro-4-methoxyphenyl)-1-oxo-2-phenyl-1,2-dihydroisoquinolin-3-yl)ethyl)amino)pyrido[2,3-d]pyrimidin-5(8H)-one] |  |  | 102 |  | 85 | 
